Data: ChEMBL document CHEMBL2311281, “Novel berberine triazoles: synthesis, antimicrobial evaluation and competitive interactions with metal ions to human serum albumin” (Bioorg Med Chem Lett, 2013)
Converted amounts (≈) assume the structure as drawn.

These molecules were tested on Staphylococcus aureus (assay: Antibacterial activity against Staphylococcus aureus ATCC 25923 by two fold serial dilution method).
Assay type: functional

| SMILES | MIC |
| --- | --- |
| Clc1cccc(CN(CCBr)CCn2cncn2)c1 | 128 µg/mL (≈ 372 µM) |
| CCn1cc(C(=O)O)c(=O)c2cc(F)c(N3CCNCC3)cc21 [NORFLOXACIN] | 0.5 µg/mL (≈ 1.57 µM) |
| O=C(N[C@H](CO)[C@H](O)c1ccc([N+](=O)[O-])cc1)C(Cl)Cl [CHLORAMPHENICOL] | 16 µg/mL (≈ 49.5 µM) |
| Clc1ccc(CN(CCBr)CCn2cncn2)cc1 | 128 µg/mL (≈ 372 µM) |
| COc1ccc2cc3[n+](cc2c1OCCN(CCn1cncn1)Cc1cccc(F)c1)CCc1cc2c(cc1-3)OCO2.[Cl-] | 8 µg/mL |

The molecules below were run on Staphylococcus aureus (assay: Potency index, ratio of MIC for berberine to MIC compound against methicillin-resistant Staphylococcus aureus N315 by two fold serial dilution method).
Assay type: functional

| SMILES | Ratio |
| --- | --- |
| COc1ccc2cc3[n+](cc2c1OCCN(CCn1cncn1)Cc1cccc(F)c1)CCc1cc2c(cc1-3)OCO2.[Cl-] | 16 |

Each molecule was assayed on Staphylococcus aureus (assay: Potency index, ratio of MIC for chloromycin to MIC compound against methicillin-resistant Staphylococcus aureus N315 by two fold serial dilution method).
Assay type: functional

| SMILES | Ratio |
| --- | --- |
| COc1ccc2cc3[n+](cc2c1OCCN(CCn1cncn1)Cc1cccc(F)c1)CCc1cc2c(cc1-3)OCO2.[Cl-] | 2 |

The molecules below were run on Micrococcus luteus (assay: Antibacterial activity against Micrococcus luteus ATCC 4698 by two fold serial dilution method).
Assay type: functional

| SMILES | MIC |
| --- | --- |
| Clc1cccc(CN(CCBr)CCn2cncn2)c1 | 64 µg/mL (≈ 186 µM) |
| CCn1cc(C(=O)O)c(=O)c2cc(F)c(N3CCNCC3)cc21 [NORFLOXACIN] | 2 µg/mL (≈ 6.26 µM) |
| O=C(N[C@H](CO)[C@H](O)c1ccc([N+](=O)[O-])cc1)C(Cl)Cl [CHLORAMPHENICOL] | 8 µg/mL (≈ 24.8 µM) |
| Clc1ccc(CN(CCBr)CCn2cncn2)cc1 | 512 µg/mL (≈ 1490 µM) |
| COc1ccc2cc3[n+](cc2c1OCCN(CCn1cncn1)Cc1cccc(F)c1)CCc1cc2c(cc1-3)OCO2.[Cl-] | 16 µg/mL |

What follows are molecules tested on Escherichia coli (assay: Antibacterial activity against Escherichia coli DH52 by two fold serial dilution method).
Assay type: functional

| SMILES | MIC |
| --- | --- |
| Clc1cccc(CN(CCBr)CCn2cncn2)c1 | 128 µg/mL (≈ 372 µM) |
| CCn1cc(C(=O)O)c(=O)c2cc(F)c(N3CCNCC3)cc21 [NORFLOXACIN] | 16 µg/mL (≈ 50.1 µM) |
| O=C(N[C@H](CO)[C@H](O)c1ccc([N+](=O)[O-])cc1)C(Cl)Cl [CHLORAMPHENICOL] | 32 µg/mL (≈ 99 µM) |
| Clc1ccc(CN(CCBr)CCn2cncn2)cc1 | 128 µg/mL (≈ 372 µM) |
| COc1ccc2cc3[n+](cc2c1OCCN(CCn1cncn1)Cc1cccc(F)c1)CCc1cc2c(cc1-3)OCO2.[Cl-] | 8 µg/mL |

What follows are molecules tested on Bacillus subtilis (assay: Antibacterial activity against Bacillus subtilis by two fold serial dilution method).
Assay type: functional

| SMILES | MIC |
| --- | --- |
| Clc1cccc(CN(CCBr)CCn2cncn2)c1 | 256 µg/mL (≈ 745 µM) |
| CCn1cc(C(=O)O)c(=O)c2cc(F)c(N3CCNCC3)cc21 [NORFLOXACIN] | 1 µg/mL (≈ 3.13 µM) |
| O=C(N[C@H](CO)[C@H](O)c1ccc([N+](=O)[O-])cc1)C(Cl)Cl [CHLORAMPHENICOL] | 32 µg/mL (≈ 99 µM) |
| Clc1ccc(CN(CCBr)CCn2cncn2)cc1 | 256 µg/mL (≈ 745 µM) |
| COc1ccc2cc3[n+](cc2c1OCCN(CCn1cncn1)Cc1cccc(F)c1)CCc1cc2c(cc1-3)OCO2.[Cl-] | 8 µg/mL |

Each molecule was assayed on Proteus vulgaris (assay: Antibacterial activity against Proteus vulgaris by two fold serial dilution method).
Assay type: functional

| SMILES | MIC |
| --- | --- |
| Clc1cccc(CN(CCBr)CCn2cncn2)c1 | > 512 µg/mL |
| CCn1cc(C(=O)O)c(=O)c2cc(F)c(N3CCNCC3)cc21 [NORFLOXACIN] | 8 µg/mL (≈ 25.1 µM) |
| O=C(N[C@H](CO)[C@H](O)c1ccc([N+](=O)[O-])cc1)C(Cl)Cl [CHLORAMPHENICOL] | 32 µg/mL (≈ 99 µM) |
| Clc1ccc(CN(CCBr)CCn2cncn2)cc1 | 512 µg/mL (≈ 1490 µM) |
| COc1ccc2cc3[n+](cc2c1OCCN(CCn1cncn1)Cc1cccc(F)c1)CCc1cc2c(cc1-3)OCO2.[Cl-] | 4 µg/mL |

What follows are molecules tested on Shigella dysenteriae (assay: Antibacterial activity against Shigella dysenteriae by two fold serial dilution method).
Assay type: functional

| SMILES | MIC |
| --- | --- |
| Clc1cccc(CN(CCBr)CCn2cncn2)c1 | 256 µg/mL (≈ 745 µM) |
| CCn1cc(C(=O)O)c(=O)c2cc(F)c(N3CCNCC3)cc21 [NORFLOXACIN] | 4 µg/mL (≈ 12.5 µM) |
| O=C(N[C@H](CO)[C@H](O)c1ccc([N+](=O)[O-])cc1)C(Cl)Cl [CHLORAMPHENICOL] | 32 µg/mL (≈ 99 µM) |
| Clc1ccc(CN(CCBr)CCn2cncn2)cc1 | 256 µg/mL (≈ 745 µM) |
| COc1ccc2cc3[n+](cc2c1OCCN(CCn1cncn1)Cc1cccc(F)c1)CCc1cc2c(cc1-3)OCO2.[Cl-] | 4 µg/mL |

What follows are molecules tested on Pseudomonas aeruginosa (assay: Antibacterial activity against Pseudomonas aeruginosa by two fold serial dilution method).
Assay type: functional

| SMILES | MIC |
| --- | --- |
| Clc1cccc(CN(CCBr)CCn2cncn2)c1 | 256 µg/mL (≈ 745 µM) |
| CCn1cc(C(=O)O)c(=O)c2cc(F)c(N3CCNCC3)cc21 [NORFLOXACIN] | 16 µg/mL (≈ 50.1 µM) |
| O=C(N[C@H](CO)[C@H](O)c1ccc([N+](=O)[O-])cc1)C(Cl)Cl [CHLORAMPHENICOL] | 32 µg/mL (≈ 99 µM) |
| Clc1ccc(CN(CCBr)CCn2cncn2)cc1 | 256 µg/mL (≈ 745 µM) |
| COc1ccc2cc3[n+](cc2c1OCCN(CCn1cncn1)Cc1cccc(F)c1)CCc1cc2c(cc1-3)OCO2.[Cl-] | 8 µg/mL |

Each molecule was assayed on Staphylococcus aureus (assay: Antibacterial activity against methicillin-resistant Staphylococcus aureus N315 by two fold serial dilution method).
Assay type: functional

| SMILES | MIC |
| --- | --- |
| Clc1cccc(CN(CCBr)CCn2cncn2)c1 | 256 µg/mL (≈ 745 µM) |
| CCn1cc(C(=O)O)c(=O)c2cc(F)c(N3CCNCC3)cc21 [NORFLOXACIN] | 8 µg/mL (≈ 25.1 µM) |
| O=C(N[C@H](CO)[C@H](O)c1ccc([N+](=O)[O-])cc1)C(Cl)Cl [CHLORAMPHENICOL] | 16 µg/mL (≈ 49.5 µM) |
| Clc1ccc(CN(CCBr)CCn2cncn2)cc1 | 256 µg/mL (≈ 745 µM) |
| COc1ccc2cc3[n+](cc2c1OCCN(CCn1cncn1)Cc1cccc(F)c1)CCc1cc2c(cc1-3)OCO2.[Cl-] | 8 µg/mL |
